According to EPA's ToxValDB 9.5:
“And” between values parts separate entries of the source, which are not always exact repeats. Identical values can stand only once. One block for each compound: values may come before it.

Tests used:
Mus musculus = conditions: chronic; duration: 50 weeks; oral; drinking water; F; Swiss; body weight
Rattus norvegicus [1] = conditions: for LEL: uterotrophic, Active; for NOEL / LOEL: Hershberger
Rattus norvegicus [2] = conditions: acute, oral, gavage
Rattus norvegicus [3] = conditions: subchronic; duration: 13 weeks; oral; diet; F; Fischer 344; Body Weight Changes: decrease + Histopathology: Bone marrow-Reticulum-cell hyperplasia Bone marrow-Myeloid depletion
[4] = duration: 3 days, injection, subcutaneous
[5] = duration: 12 days, injection, subcutaneous, Wistar, active + Androgenic + androgenic
[6] = duration: 10 days, oral, gavage, Sprague-Dawley, active + Antiandrogenic + anti-androgenic

Structure (SMILES): O=[N+]([O-])c1ccc(O)c([N+](=O)[O-])c1 [2,4-Dinitrophenol]
LOAEL (Mus musculus): 0.07 mg/kg-day

LEL (Rattus norvegicus [1]; [4]): 200 mg/kg-day and 199 mg/kg-day
Structure (SMILES): CCCCC(CC)COC(=O)c1ccc(O)cc1 (stereo unspecified) [2-Ethylhexyl p-hydroxybenzoate]

Structure (SMILES): Oc1ccccc1-c1ccccc1 [2-Phenylphenol]
NOEL (Rattus norvegicus [1]; duration: 10 days, oral, gavage, Sprague-Dawley, inactive + Negative + Negative + anti-androgenic + decrease in ASTs, NS (1.6 d) delay PPS / accompanied by "minor" increase in liver wt and…): 250 mg/kg-day

Structure (SMILES): CCCCCCCCc1ccc(O)cc1 [4-Octylphenol]
LEL (Rattus norvegicus [1]; duration: 4 days, oral): 100 mg/kg-day
LD50 (Rattus norvegicus [2]; albino): 1100 mg/kg and 1200 mg/kg and 1400 mg/kg

LEL (Rattus norvegicus [1]; duration: 1 days, injection, subcutaneous): 15 mg/kg-day
Structure (SMILES): Cc1c2ccccc2c(C)c2c1ccc1ccccc12 [7,12-Dimethylbenz(a)anthracene]

Structure (SMILES): CC[C@H](C)[C@H]1O[C@]2(C=C[C@@H]1C)C[C@@H]1C[C@@H](C/C=C(\C)[C@@H](O[C@H]3C[C@H](OC)[C@@H](O[C@H]4C[C@H](OC)[C@@H](O)[C@H](C)O4)[C@H](C)O3)[C@@H](C)/C=C/C=C3\CO[C@@H]4[C@H](O)C(C)=C[C@@H](C(=O)O1)[C@]34O)O2.CO[C@H]1C[C@H](O[C@H]2[C@H](C)O[C@@H](O[C@@H]3/C(C)=C/C[C@@H]4C[C@@H](C[C@]5(C=C[C@H](C)[C@@H](C(C)C)O5)O4)OC(=O)[C@@H]4C=C(C)[C@@H](O)[C@H]5OC/C(=C\C=C\[C@@H]3C)[C@]54O)C[C@@H]2OC)O[C@@H](C)[C@@H]1O [Abamectin]
NOEL (Rattus norvegicus [1]; duration: 10 days, oral, gavage, Sprague-Dawley, inactive + Negative + Negative + anti-androgenic + negative): 1.5 mg/kg-day

Structure (SMILES): Nc1ncn[nH]1 [Amitrole]
NOEL (Rattus norvegicus [1]; duration: 10 days, oral, gavage, Wistar, inactive + Negative + Negative + anti-androgenic + negative on gonad/AST / significant thyroid effects beginning at 25 / increased SV wt …): 125 mg/kg-day

Structure (SMILES): COC(=O)Nc1nc2ccccc2[nH]1 [Carbendazim]
NOEL (Rattus norvegicus [1]; duration: 10 days, oral, gavage, Wistar, inactive + Negative + Negative + Neither + effects on fertility, reduced testis/epididymal wt and abnormal histo in P0, fertility): 100 mg/kg-day
LD50 (Rattus norvegicus [2]; Harlan Sprague Dawley): > 5050 mg/kg

LEL (Rattus norvegicus [1]; duration: 3 days, oral): 4 mg/kg-day
Structure (SMILES): CCOC(=O)C(C)(C)Oc1ccc(Cl)cc1 [Clofibrate]

LEL (Rattus norvegicus [1]; [4]): 1 mg/day
Structure (SMILES): O=c1oc2cc(O)ccc2c2oc3cc(O)ccc3c12 [Coumestrol]

Structure (SMILES): CC(C)[C@H](C(=O)O[C@H](C#N)c1cccc(Oc2ccccc2)c1)c1ccc(Cl)cc1 [Esfenvalerate]
NOEL (Rattus norvegicus [1]; duration: 10 days, oral, gavage, Sprague-Dawley, inactive + Negative + Negative + neither + negative): 9 mg/kg-day

Structure (SMILES): C[C@]12CC[C@@H]3c4ccc(OC(=O)c5ccccc5)cc4CC[C@H]3[C@@H]1CC[C@@H]2O [Estradiol benzoate]
LOEL (Rattus norvegicus [1]; duration: 7 days, injection, subcutaneous, Wistar, active + Androgenic + androgenic): 0.0025 mg/kg-day

Structure (SMILES): CCCSP(=O)(OCC)SCCC [Ethoprop]
NOEL (Rattus norvegicus [1]; duration: 10 days, oral, gavage, Sprague-Dawley, active + Negative + Antiandrogenic + anti-androgenic + decrease in serum testosterone, decrease in epididymal wt at 6 mg/kg / thyroid …): 8 mg/kg-day

LEL (Rattus norvegicus [1]; [4]): 180 mg/kg-day
Structure (SMILES): CCOC(=O)c1ccc(O)cc1 [Ethylparaben]

Structure (SMILES): CC(C)(C)NC(=O)[C@H]1CC[C@H]2[C@@H]3CC[C@H]4NC(=O)C=C[C@]4(C)[C@H]3CC[C@]12C [Finasteride]
LOEL (Rattus norvegicus [1]; duration: 5 days, oral, gavage, Sprague-Dawley, active + Antiandrogenic + anti-androgenic + decreased age at PPS at 20mg/kg, increased at 80 mg/kg (with 7.8% increased liver wt at high …): 20 mg/kg-day and 25 mg/kg-day
LOEL (Rattus norvegicus [1]; duration: 7 days, oral, gavage, Sprague-Dawley, active + Antiandrogenic + anti-androgenic + decreased age at PPS at 20mg/kg, increased at 80 mg/kg (with 7.8% increased liver wt at high …): 20 mg/kg-day and 25 mg/kg-day

Structure (SMILES): O=C1O[C@H]([C@@H](O)CO)C(O)=C1O [L-Ascorbic acid]
LEL (Rattus norvegicus [1]; duration: 20 days, injection, subcutaneous): 25 mg/kg-day
NOEL (Rattus norvegicus [3]): < 2400 mg/kg-day

Structure (SMILES): C[C@]12C=CC(=O)C[C@@H]1CC[C@@H]1[C@@H]2CC[C@@]2(C)[C@H]1CC[C@]2(C)O [Methyl-1-testosterone]
LOEL (Rattus norvegicus [1]; duration: 10 days, injection, subcutaneous, Wistar, active + Androgenic + androgenic): 1 mg/kg-day
LOEL (Rattus norvegicus [1]; [5]): 0.3 mg/kg-day
NOEL (Rattus norvegicus [1]; [5]): 0.03 mg/kg-day

LEL (Rattus norvegicus [1]; duration: 4 days, injection, intraperitoneal): 100 mg/kg-day
Structure (SMILES): CC#C[C@]1(O)CC[C@H]2[C@@H]3CCC4=CC(=O)CCC4=C3[C@@H](c3ccc(N(C)C)cc3)C[C@@]21C [Mifepristone]
LOEL (Rattus norvegicus [1]; [6]): 25 mg/kg-day
NOEL (Rattus norvegicus [1]; [6]): 10 mg/kg-day
